Earlier results as cited in PubChem BioAssay AID1259409 (Chemical Carcinogenesis Research Information System (CCRIS), 2018).

System: rodent chemically induced tumor inhibition, incidence and multiplicity
Experiment: CCRIS tumor inhibitor studies

Structure (SMILES)	tumour outcome (control, treated, inhibition, significance) (Carcinogen: 2-AMINO-1-METHYL-6-PHENYL-1H-IMIDAZO[4,5-B]PYRID INE [105650-23-5], Dose [Inhibitor]: 0, 400 PPM IN DIET FOR DURATION OF STUDY BEGINNING 1 D PRIOR TO CARCINOGEN TREATMENT (STUDY DURATION: 21 WK), Route [Inhibitor]: ORAL, Species: RAT, Strain/Sex: SPRAGUE-DAWLEY/FEMALE, Target Tissue: Type of Lesion: MAMMARY GLAND: DUCTAL CARCINOMA, Dose [Carcinogen]: 85 MG/KG BW 4X/WK FOR 2 WK)	tumour outcome (control, treated, inhibition, significance) (Carcinogen: 7, 12-DIMETHYLBENZ(A)ANTHRACENE [57-97-6], Dose [Inhibitor]: 5 MG/KG BW TWICE WEEKLY BEGINNING 3 D BEFORE FIRST CARCINOGEN DOSE FOR 13 WK (STUDY DURATION: 13 WK), Route [Inhibitor]: SUBCUTANEOUS, Species: RAT, Strain/Sex: SPRAGUE-DAWLEY/FEMALE, Target Tissue: Type of Lesion: MAMMARY GLAND: TUMOR, Dose [Carcinogen]: 10 MG THREE TIMES BETWEEN POSTNATAL DAYS 45-59)	tumour outcome (control, treated, inhibition, significance) (Carcinogen: AZOXYMETHANE (25843-45-2), Dose [Inhibitor]: 0, 0.04% 1 WK AFTER END OF DEXTRAN SODIUM SULFATE TREATMENT FOR 14 WKS (STUDY DURATION: 17 WKS), Route [Inhibitor]: DIET, Species: MOUSE, Strain/Sex: CD-1/FEMALE (10,10)/(10,10), Target Tissue: Type of Lesion: COLON: ADENOMA, Dose [Carcinogen]: 10 MG/KG ONCE, Promoter: DEXTRAN SODIUM SULFATE (9011-18-1))	tumour outcome (control, treated, inhibition, significance) (Carcinogen: AZOXYMETHANE (25843-45-2), Dose [Inhibitor]: 0, 0.04% IN DIET 1 WK AFTER END OF DEXTRAN SODIUM SULFATE TREATMENT FOR 14 WKS (STUDY DURATION: 17 WKS), Route [Inhibitor]: DIET, Species: MOUSE, Strain/Sex: CD-1/FEMALE (10,10)/(10,10), Target Tissue: Type of Lesion: COLON: ADENOCARCINOMA, Dose [Carcinogen]: 10 MG/KG ONCE, Promoter: DEXTRAN SODIUM SULFATE (9011-18-1))	tumour outcome (control, treated, inhibition, significance) (Carcinogen: AZOXYMETHANE, 25843-45-2, Dose [Inhibitor]: 0, 200 PPM IN DIET FOR DURATION OF STUDY BEGINNING 1D PRIOR TO CARCINOGEN TREATMENT (STUDY DURATION: 30 WK), Route [Inhibitor]: ORAL, Species: MOUSE, Strain/Sex: ICR/MALE, Target Tissue: Type of Lesion: COLON: CARCINOMA, Dose [Carcinogen]: 10 MG/KG BW IN SALINE 1/WK FOR 6 WK, Promoter: NONE USED)	tumour outcome (control, treated, inhibition, significance) (Carcinogen: AZOXYMETHANE, 25843-45-2, Dose [Inhibitor]: 0, 400 PPM IN DIET FOR DURATION OF STUDY BEGINNING 1 D PRIOR TO CARCINOGEN TREATMENT (STUDY DURATION: 30 WK), Route [Inhibitor]: ORAL, Species: MOUSE, Strain/Sex: ICR/MALE, Target Tissue: Type of Lesion: COLON: CARCINOMA, Dose [Carcinogen]: 10 MG/KG BW IN SALINE 1/WK FOR 6 WK, Promoter: NONE USED)	tumour outcome (control, treated, inhibition, significance) (Carcinogen: N-BUTYL-N-(4-HYDROXYBUTYL)NITROSAMINE, 3817-11-6, Dose [Inhibitor]: 0, 100 PPM IN DIET FOR 12 WK BEGINNING POST CARCINOGEN TREATMENT (STUDY DURATION: 20 WK), Route [Inhibitor]: ORAL, Species: RAT, Strain/Sex: F344/MALE, Target Tissue: Type of Lesion: URINARY BLADDER: TRANSITIONAL CELL CARCINOMA, Dose [Carcinogen]: 0.05% IN DRINKING WATER FOR 8 WK, Promoter: NONE USED)	tumour outcome (control, treated, inhibition, significance) (Carcinogen: N-BUTYL-N-(4-HYDROXYBUTYL)NITROSAMINE, 3817-11-6, Dose [Inhibitor]: 0, 200 PPM IN DIET FOR 12 WK BEGINNING POST CARCINOGEN TREATMENT (STUDY DURATION: 20 WK), Route [Inhibitor]: ORAL, Species: RAT, Strain/Sex: F344/MALE, Target Tissue: Type of Lesion: URINARY BLADDER: TRANSITIONAL CELL CARCINOMA, Dose [Carcinogen]: 0.05% IN DRINKING WATER FOR 8 WK, Promoter: NONE USED)	tumour outcome (control, treated, inhibition, significance) (Carcinogen: N-BUTYL-N-(4-HYDROXYBUTYL)NITROSAMINE, 3817-11-6, Dose [Inhibitor]: 0, 400 PPM IN DIET FOR 12 WK BEGINNING POST CARCINOGEN TREATMENT (STUDY DURATION: 20 WK), Route [Inhibitor]: ORAL, Species: RAT, Strain/Sex: F344/MALE, Target Tissue: Type of Lesion: URINARY BLADDER: TRANSITIONAL CELL CARCINOMA, Dose [Carcinogen]: 0.05% IN DRINKING WATER FOR 8 WK, Promoter: NONE USED)	tumour outcome (control, treated, inhibition, significance) (Carcinogen: N-METHYL-N-NITROSOUREA [684-93-5], Dose [Inhibitor]: 5 MG/KG BW TWICE WEEKLY BEGINNING 5 D BEFORE FIRST CARCINOGEN DOSE FOR 27 WK (STUDY DURATION: 27 WK), Route [Inhibitor]: SUBCUTANEOUS, Species: RAT, Strain/Sex: SPRAGUE-DAWLEY/FEMALE, Target Tissue: Type of Lesion: MAMMARY GLAND: TUMOR, Dose [Carcinogen]: 50 MG/KG BW TWICE ON POSTNATAL DAYS 51 AND 58)	tumour outcome (control, treated, inhibition, significance) (Carcinogen: 4-(METHYLNITROSAMINO)-1-(3-PYRIDYL)-1-BUTANONE, 64091-91-4, Dose [Inhibitor]: 0, 1 UMOL ONCE 2 HR PRIOR TO CARCINOGEN DOSE (STUDY DURATION: 16 WK), Route [Inhibitor]: GAVAGE, Species: MOUSE, Strain/Sex: STRAIN-A/FEMALE, Target Tissue: Type of Lesion: LUNG: ADENOMA, Dose [Carcinogen]: 10 UMOL IN 0.1 ML SALINE ONCE, Promoter: NONE USED)	tumour outcome (control, treated, inhibition, significance) (Carcinogen: 4-(METHYLNITROSAMINO)-1-(3-PYRIDYL)-1-BUTANONE, 64091-91-4, Dose [Inhibitor]: 0, 5 UMOL ONCE 2 HR PRIOR TO CARCINOGEN DOSE (STUDY DURATION: 16 WK), Route [Inhibitor]: GAVAGE, Species: MOUSE, Strain/Sex: STRAIN-A/FEMALE, Target Tissue: Type of Lesion: LUNG: ADENOMA, Dose [Carcinogen]: 10 UMOL IN 0.1 ML SALINE ONCE, Promoter: NONE USED)
CS(=O)(=O)Nc1ccc([N+](=O)[O-])cc1Oc1ccccc1	30/42 (71%), 19/37 (51%), 28.2%, not significant	23/24 (95.8%), 24/25 (96.0%), -0.2%, not significant	10/10 (100%), 6/10 (60%), 40%, p<0.05	10/10 (100%), 4/10 (40%), 60%, p<0.01	14/28 (50%), 12/37 (32%), 36%, not significant	14/28 (50%), 10/40 (25%), 50%, p<0.05	18/20 (90%), 12/20 (60%), 33%, not significant	18/20 (90%), 8/16 (50%), 44%, p<0.05	18/20 (90%), 5/19 (26%), 71%, p<0.0002	17/18 (94%), 10/18 (55.6%), 41%, p<0.05		
CCCCC(C)N=C=S (configuration not stated)											100%, 70%, 30%, p<0.05	100%, 30%, 70%, p<0.05
